Reference: patent US11884652B2, “Tetrazole derivatives as TRPA1 inhibitors” (Boehringer Ingelheim International GmbH, priority 2020, dated 2024)

Assays:
[1] = target: T1, human TRPA1 ion channel (Homo sapiens, UniProt O75762); test: Assay A: TRPA1 assay (FLIPR, AITC-induced calcium, HEK293 cells); type: cell-based; conditions: read-out: hTRPA1 IC50
T1 construct: host or cells: HEK293
Experimental: A human HEK293 cell line over-expressing the human TRPA1 ion channel (Perkin Elmer, Product No. AX-004-PCL) is used as a test system for compound efficacy and potency. Compound activity is determined by measuring the effect of compounds on intracellular calcium concentration induced by AITC (Allylisothiocyanat) agonism in a FLIPRtetra system (Molecular Devices).
The cells are obtained as frozen cells in cryo-vials and stored until use at −150° C. Cells are grown in culture medium (MEM/EBSS medium with 10% FCS and 0.4 mg/ML Geneticin). […] For sub-culturing cells are detached from flasks by Versene. At the day before the assay, cells are detached, washed twice with medium (MEM/EBSS medium with 10% FCS) and 20000 cells in 20 μl/well are seeded to Poly D-Lysin biocoated 384-well plates (black, clear bottom, Cat. 356697) from Corning. Plates are incubated for 24 hours at 37° C./5% CO2 before use in the assay.
The test compounds are dissolved in 100% DMSO at a concentration of 10 mM and in a first step diluted in DMSO to a concentration of 5 mM, followed by serial dilution steps in 100% DMSO. Dilution factor and number of dilution steps may vary according to needs. Typically 8 different concentrations by 1:5 dilutions are prepared, further intermediate dilutions (1:20) of the substances are carried out with HBSS/HEPES buffer (1×HEPES, Cat. 14065 from Gibco, 20 mM HEPES, Cat. 83264 from SIGMA, 0.1% BSA Cat. 11926 from Invitrogen, pH 7.4
At the assay day cells are washed 3× with assay puffer, 20 μL buffer remaining in the wells after washing. 10 μL Ca6 kit (Cat. R8191 MolecularDevices) loading buffer in HBSS/HEPES is added to the cells and the plates are incubated with lid for 120 minutes at 37°/5% CO2. 10 μL of compound or controls in HBSS/HEPES buffer/5% DMSO from the intermediate dilution plate are carefully added to the wells. […] Finally 10 μL of the agonist AITC 50 μM dissolved in HBSS/HEPES buffer/0.05% DMSO (final concentration 10 μM) is added to the wells followed by an additional read on the FLIPRtetra device for 10 minutes. The area under the signal curve (AUC) after AITC addition is used for IC50/% inhibition calculations
Data Evaluation and Calculation:
Each assay microtiter plate contains wells with vehicle (1% DMSO) controls instead of compound as controls for AITC induced luminescence (100% CTL; high controls) and wells with vehicle controls without AITC as controls for non-specific changes in luminescence (0% CTL; low controls).
The analysis of the data is performed by the calculation of the area under signal curve of the individual wells. Based on this values the % value for the measurement of each substance concentration is calculated (AUC(sample)−AUC(low))*100/(AUC(high)−AUC(low)) using MegaLab software (in house development). The IC50 values are calculated from the % control values using MegaLab software. Calculation: [y=(ad)/(1+(x/c)^b)+d], a=low value, d=high value; x=conc M; c=IC50 M; b=hill; y=% ctrl

[2] = Assay B: Microsomal clearance; type: in vitro ADME, human; conditions: pooled liver microsomes 1 mg/ml, 1 μM compound, NADPH, 37° C.; clearance as % of hepatic blood flow
Experimental: Assay B: Microsomal Clearance:
The metabolic degradation of the test compound is assayed at 37° C. with pooled liver microsomes. The final incubation volume of 100 μl per time point contains TRIS buffer pH 7.6 at RT (0.1 M), magnesium chloride (5 mM), microsomal protein (1 mg/ml) and the test compound at a final concentration of 1 μM.
Following a short preincubation period at 37° C., the reactions are initiated by addition of beta-nicotinamide adenine dinucleotide phosphate, reduced form (NADPH, 1 mM) and terminated by transferring an aliquot into solvent after different time points (0, 5, 15, 30, 60 min). Additionally, the NADPH-independent degradation is monitored in incubations without NADPH, terminated at the last time point. The [%] remaining test compound after NADPH independent incubation is reflected by the parameter c(control) (metabolic stability). The quenched incubations are pelleted by centrifugation (10000 g, 5 min).
An aliquot of the supernatant is assayed by LC-MS/MS for the amount of parent compound. The half-life (t½ INVITRO) is determined by the slope of the semilogarithmic plot of the concentration-time profile.
The intrinsic clearance (CL_[…]) is calculated by considering the amount of protein in the incubation: CL_[…] [μl/min/mg protein]=(Ln 2/(half-life [min]*protein content [mg/ml]))*1000 CL_[…]_INVIVO [ml/min/kg]=(CL_[…] [μL/min/mg protein]×MPPGL [mg protein/g liver]×liver factor [g/kg bodyweight])/1000 Qh[%]=CL[ml/min/kg]/hepatic blood flow [ml/min/kg])
(§1) Hepatocellularity, human: 120×10e6 cells/g liver
(§2) Liver factor, human: 25.7 g/kg bodyweight
(§3) Blood flow, human: 21 ml/(min×kg)

[3] = Assay C: Hepatocyte clearance; type: in vitro ADME, human; conditions: hepatocyte suspension, 1 μM compound, 6 h; predicted clearance as % of hepatic blood flow
Experimental: Assay C: Hepatocyte Clearance
The metabolic degradation of the test compound is assayed in a hepatocyte suspension. Hepatocytes (cryopreserved) are incubated in Dulbecco's modified eagle medium (supplemented with 3.5 μg glucagon/500 mL, 2.5 mg insulin/500 mL and 3.75 mg/500 mL hydrocortison) containing 5% or 50% species serum.
The cells are incubated for six hours (incubator, orbital shaker) and samples ([…]) are taken at 0, 0.5, 1, 2, 4 and 6 hours. Samples are transferred into acetonitrile and pelleted by centrifugation (5 min). The supernatant is transferred to a new 96-deepwell plate, evaporated under nitrogen and resuspended.
Decline of Parent Compound is Analyzed by HPLC-MS/MS
CLint is calculated as follows CL_[…]=Dose/AUC=(C0/CD)/(AUD+clast/k)×1000/60. C0: initial concentration in the incubation [μM], CD: cell density of vital cells [10e6 cells/mL], AUD: area under the data [μM×h], clast: concentration of last data point [μM], k: slope of the regression line for parent decline [h−1].
The calculated in vitro hepatic intrinsic clearance can be scaled up to the intrinsic in vivo hepatic Clearance and used to predict hepatic in vivo blood clearance (CL) by the use of a liver model (well stirred model). CL_[…]_INVIVO [ml/min/kg]=(CL_[…] [μL/min/10e6 cells]×hepatocellularity [10e6 cells/g liver]×liver factor [g/kg bodyweight])/1000 CL[ml/min/kg]=CL_[…]_INVIVO [ml/min/kg]×hepatic blood flow [ml/min/kg]/(CL_[…]_INVIVO [ml/min/kg]+hepatic blood flow [ml/min/kg]) Qh[%]=CL[ml/min/kg]/hepatic blood flow [ml/min/kg])
as §1, §2, §3

T1 sequence (O75762 whole entry): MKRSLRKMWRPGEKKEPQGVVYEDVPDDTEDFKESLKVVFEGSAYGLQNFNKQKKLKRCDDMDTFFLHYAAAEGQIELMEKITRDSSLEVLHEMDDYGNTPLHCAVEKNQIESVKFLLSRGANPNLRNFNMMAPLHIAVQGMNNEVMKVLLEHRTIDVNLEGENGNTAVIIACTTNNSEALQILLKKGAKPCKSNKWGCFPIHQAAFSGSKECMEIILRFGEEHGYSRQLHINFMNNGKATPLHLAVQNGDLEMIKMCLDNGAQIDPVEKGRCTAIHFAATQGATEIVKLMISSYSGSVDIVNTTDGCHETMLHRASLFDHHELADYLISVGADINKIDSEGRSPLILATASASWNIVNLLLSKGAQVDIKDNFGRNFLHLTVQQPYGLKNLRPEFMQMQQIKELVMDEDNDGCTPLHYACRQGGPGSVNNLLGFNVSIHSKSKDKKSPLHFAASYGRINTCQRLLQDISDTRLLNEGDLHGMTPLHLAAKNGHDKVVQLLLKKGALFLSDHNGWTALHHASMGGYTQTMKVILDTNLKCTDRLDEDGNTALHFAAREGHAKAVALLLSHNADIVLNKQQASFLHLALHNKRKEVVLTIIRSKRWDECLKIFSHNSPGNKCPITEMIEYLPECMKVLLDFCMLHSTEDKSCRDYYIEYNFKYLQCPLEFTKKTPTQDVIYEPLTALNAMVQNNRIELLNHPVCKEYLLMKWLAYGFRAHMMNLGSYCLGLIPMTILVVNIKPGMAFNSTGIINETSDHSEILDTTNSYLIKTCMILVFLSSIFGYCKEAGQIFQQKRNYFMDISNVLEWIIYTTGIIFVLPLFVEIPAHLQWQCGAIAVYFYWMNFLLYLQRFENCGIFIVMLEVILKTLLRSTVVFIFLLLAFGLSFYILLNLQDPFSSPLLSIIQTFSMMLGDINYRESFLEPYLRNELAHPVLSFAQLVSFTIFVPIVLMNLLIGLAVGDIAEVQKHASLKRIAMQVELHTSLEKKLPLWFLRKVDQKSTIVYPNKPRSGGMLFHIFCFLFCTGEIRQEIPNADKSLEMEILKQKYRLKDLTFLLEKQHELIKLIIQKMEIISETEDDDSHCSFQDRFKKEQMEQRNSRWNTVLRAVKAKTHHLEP

| SMILES | IC50 [1] [nM] | human LM [% Qh] [2] [% Qh] | human Hepatocytes [% Qh] [3] [% Qh] |
| --- | --- | --- | --- |
| Cn1c(=O)c(C(N)=O)cn(Cc2nnn(C[C@H](O)c3ccc(Cl)cc3)n2)c1=O [Example 1, 1-({2-[(2R)-2-(4-chlorophenyl)-2-hydroxyethyl]-2H-1,2,3,4-tetrazol-5-yl}methyl)-3-methyl-2,4-dioxo-1,2,3,4-tetrahydropyrimidine-5-carboxamide] | 40 | <23 | <4 |
| Cn1c(=O)c(C(N)=O)cn(Cc2nnn(C[C@H](O)c3cc4ccccc4s3)n2)c1=O [Example 2] | 18 | <23 | 13 |
| Cn1c(=O)c(C(N)=O)cn(Cc2nnn(C[C@H](O)c3ccc(Br)cc3)n2)c1=O [Example 7] | 56 | <23 | <4 |
| Cn1c(=O)c(C(N)=O)cn(Cc2nnn(C[C@H](O)c3cc4cc(F)ccc4o3)n2)c1=O [Example 8] | 59 | <23 | 6 |
| Cn1c(=O)c(C(N)=O)cn(Cc2nnn(C[C@H](O)c3ccc(Cl)s3)n2)c1=O [Example 10] | 92 | <23 | 15 |
| Cn1c(=O)c(C(N)=O)cn(Cc2nnn(C[C@H](O)c3ccc4c(c3)OCO4)n2)c1=O [Example 11] | 105 | <23 | <4 |
| Cc1ccc([C@@H](O)Cn2nnc(Cn3cc(C(N)=O)c(=O)n(C)c3=O)n2)cc1 [Example 13] | 124 | <23 | <4 |
| CC(C)Cn1c(=O)c(C(N)=O)cn(Cc2nnn(C[C@H](O)c3ccc(Cl)cc3)n2)c1=O [Example 17] | 213 | 42 | 49 |
| NC(=O)c1cn(Cc2nnn(C[C@H](O)c3ccc(Cl)cc3)n2)c(=O)n(C2CCC2)c1=O [Example 18] | 33 | 38 | 39 |
| CCn1c(=O)c(C(N)=O)cn(Cc2nnn(C[C@H](O)c3ccc(Cl)cc3)n2)c1=O [Example 19] | 62 | <23 | 5 |
| NC(=O)c1cn(Cc2nnn(C[C@H](O)c3ccc(Cl)cc3)n2)c(=O)n(CC2CC2)c1=O [Example 20] | 64 | <23 | 15 |
| COCCn1c(=O)c(C(N)=O)cn(Cc2nnn(C[C@H](O)c3ccc(Cl)cc3)n2)c1=O [Example 21] | 258 | <23 | 15 |
| Cn1c(=O)c(C(=O)NCCN2CCOCC2)cn(Cc2nnn(C[C@H](O)c3ccc(Cl)cc3)n2)c1=O [Example 24] | 39 | 38 | 28 |

The remaining compounds from weak to strong by IC50 [1], led by results:

| IC50 [1] [nM] | human LM [% Qh] [2] [% Qh] | human Hepatocytes [% Qh] [3] [% Qh] | SMILES |
| --- | --- | --- | --- |
| 198 | <23 | 14 | Cn1c(=O)c(C(N)=O)cn(Cc2nnn(C[C@H](O)c3cc4cccc(F)c4o3)n2)c1=O [Example 15] |
| 160 | <23 | <4 | COc1ccc([C@@H](O)Cn2nnc(Cn3cc(C(N)=O)c(=O)n(C)c3=O)n2)cc1 [Example 16] |
| 156 | <23 | 4 | Cn1c(=O)c(C(N)=O)cn(Cc2nnn(C[C@H](O)c3ccc(C#N)s3)n2)c1=O [Example 14] |
| 110 | <23 | 16 | Cn1c(=O)c(C(N)=O)cn(Cc2nnn(C[C@H](O)c3cc4ccc(F)cc4o3)n2)c1=O [Example 12] |
| 72 | <23 | 7 | Cn1c(=O)c(C(N)=O)cn(Cc2nnn(C[C@H](O)c3cc4ccccc4o3)n2)c1=O [Example 9] |
| 42 | <23 | 15 | Cn1c(=O)c(C(N)=O)cn(Cc2nnn(C[C@H](O)c3cc4cc(Cl)ccc4o3)n2)c1=O [Example 6] |
| 39 | <23 | 15 | Cn1c(=O)c(C(=O)NCC(F)F)cn(Cc2nnn(C[C@H](O)c3ccc(Cl)cc3)n2)c1=O [Example 23] |
| 34 | <23 | 8 | Cn1c(=O)c(C(N)=O)cn(Cc2nnn(C[C@H](O)c3ccc4oc(F)cc4c3)n2)c1=O [Example 4] |
| 26 | <23 | 43 | Cn1c(=O)c(C(N)=O)cn(Cc2nnn(C[C@H](O)c3cc(Cl)c(Cl)s3)n2)c1=O [Example 5] |
| 23 | <23 | 25 | COCCNC(=O)c1cn(Cc2nnn(C[C@H](O)c3ccc(Cl)cc3)n2)c(=O)n(C)c1=O [Example 22, 1-({2-[(2R)-2-(4-chlorophenyl)-2-hydroxyethyl]-2H-1,2,3,4-tetrazol-5-yl}methyl)-N-(2-methoxyethyl)-3-methyl-2,4-dioxo-1,2,3,4-tetrahydropyrimidine-5-carboxamide] |
| 18 | 26 | 27 | Cn1c(=O)c(C(N)=O)cn(Cc2nnn(C[C@H](O)c3cc4ccc(F)cc4s3)n2)c1=O [Example 3] |
